Data: paper PMC5362750, “Discovery of Potent, Selective, and Orally Bioavailable Small-Molecule Modulators of the Mediator Complex-Associated Kinases CDK8 and CDK19” (Journal of Medicinal Chemistry, 2016)
Like-named read-outs stand apart in the source and are kept apart here.

What was measured:
ABL (Q252H) = ABL (Q252H) (Homo sapiens, UniProt P00519, Q252H); settings: 1 µM, ATP at Km
TAK1 = molecular target: T1, TAK1 (Homo sapiens, UniProt O43318); assay: Kinase panel (Millipore); assay type: biochemical; settings: 1 µM, ATP at Km
T1 construct: purchased Millipore (KinaseProfiler) kinase panel

BRSK1 = molecular target: T2, BRSK1 (Homo sapiens, UniProt Q8TDC3); assay: Kinase panel (Millipore); assay type: biochemical; settings: 1 µM, ATP at Km
T2 construct: purchased Millipore (KinaseProfiler) kinase panel

PRAK = molecular target: T3, PRAK (Homo sapiens, UniProt Q8IW41); assay: Kinase panel (Millipore); assay type: biochemical; settings: 1 µM, ATP at Km
T3 construct: purchased Millipore (KinaseProfiler) kinase panel

MST2 = molecular target: T4, MST2 (Homo sapiens, UniProt Q13188); assay: Kinase panel (Millipore); assay type: biochemical; settings: 1 µM, ATP at Km
T4 construct: purchased Millipore (KinaseProfiler) kinase panel

PKCMU = molecular target: T5, PKCMU (Homo sapiens, UniProt Q15139); assay: Kinase panel (Millipore); assay type: biochemical; settings: 1 µM, ATP at Km
T5 construct: purchased Millipore (KinaseProfiler) kinase panel

A1 (h) = A1 (h) (Homo sapiens, UniProt P30542); assay: CEREP binding assay; settings: agonist radioligand, read-out: % Inhibition of Control Specific Binding
KDR = molecular target: T6, KDR (Homo sapiens, UniProt P35968); assay: Kinase panel (Millipore); assay type: biochemical; settings: 1 µM, ATP at Km
T6 construct: purchased Millipore (KinaseProfiler) kinase panel

[1] = human
EPHA2 = EPHA2 (Homo sapiens, UniProt P29317); assay: Kinase panel (Millipore); assay type: biochemical; settings: 1 µM, ATP at Km
FGFR1(V561M) = FGFR1(V561M) (Homo sapiens, UniProt P11362, V561M); settings: 1 µM, ATP at Km
PI3 KINASE (H1047R/P85A) = PI3 KINASE (H1047R/P85A) (Homo sapiens, UniProt P42336, H1047R); settings: 1 µM, ATP at Km
EPHA3 = molecular target: T7, EPHA3 (Homo sapiens, UniProt P29320); assay: Kinase panel (Millipore); assay type: biochemical; settings: 1 µM, ATP at Km
T7 construct: purchased Millipore (KinaseProfiler) kinase panel

in vitro = settings: human, Caco-2, pH 7.4
MLCK = assay: Kinase panel (Millipore); assay type: biochemical; settings: 1 µM, ATP at Km
CLK2 = CLK2 (Homo sapiens, UniProt P49760); assay: Kinase panel (Millipore); assay type: biochemical; settings: 1 µM, ATP at Km
[2] = test system: Ca2+ channel (L, dihydropyridine site); settings: 10 µM, antagonist radioligand
MINK = molecular target: T8, MINK (Homo sapiens, UniProt Q8N4C8); assay: Kinase panel (Millipore); assay type: biochemical; settings: 1 µM, ATP at Km
T8 construct: purchased Millipore (KinaseProfiler) kinase panel

CKIT(D816V) = CKIT(D816V) (Homo sapiens, UniProt P10721, D816V); settings: 1 µM, ATP at Km
NMDA = settings: 10 µM, antagonist radioligand
FLT4 = molecular target: T9, FLT4 (Homo sapiens, UniProt P35916); assay: Kinase panel (Millipore); assay type: biochemical; settings: 1 µM, ATP at Km
T9 construct: purchased Millipore (KinaseProfiler) kinase panel

VRK2 = molecular target: T10, VRK2 (Homo sapiens, UniProt Q86Y07); assay: Kinase panel (Millipore); assay type: biochemical; settings: 1 µM, ATP at Km
T10 construct: purchased Millipore (KinaseProfiler) kinase panel

TAO2 = molecular target: T11, TAO2 (Homo sapiens, UniProt Q9UL54); assay: Kinase panel (Millipore); assay type: biochemical; settings: 1 µM, ATP at Km
T11 construct: purchased Millipore (KinaseProfiler) kinase panel

IRAK4 = IRAK4 (Homo sapiens, UniProt Q9NWZ3); assay: Kinase panel (Millipore); assay type: biochemical; settings: 1 µM, ATP at Km
PKG1ALPHA = PKG1ALPHA (Homo sapiens, UniProt Q13976); assay: Kinase panel (Millipore); assay type: biochemical; settings: 1 µM, ATP at Km
ARG = ARG (Homo sapiens, UniProt P42684); assay: Kinase panel (Millipore); assay type: biochemical; settings: 1 µM, ATP at Km
PKCDELTA = PKCDELTA (Homo sapiens, UniProt Q05655); assay: Kinase panel (Millipore); assay type: biochemical; settings: 1 µM, ATP at Km
RSK4 = molecular target: T12, RSK4 (Homo sapiens, UniProt Q9UK32); assay: Kinase panel (Millipore); assay type: biochemical; settings: 1 µM, ATP at Km
T12 construct: purchased Millipore (KinaseProfiler) kinase panel

DAPK2 = DAPK2 (Homo sapiens, UniProt Q9UIK4); assay: Kinase panel (Millipore); assay type: biochemical; settings: 1 µM, ATP at Km
GR (h) = molecular target: T13, GR (h) (Homo sapiens, UniProt P04150); assay: CEREP binding assay; settings: agonist radioligand, read-out: % Inhibition of Control Specific Binding
T13 construct: CEREP

D3 (h) = D3 (h) (Homo sapiens, UniProt P35462); assay: biochemical; settings: read-out: % Inhibition of Control Specific Binding
PRKCQ = molecular target: T14, PRKCQ (Homo sapiens, UniProt Q04759); assay: Kinase panel (Millipore); assay type: biochemical; settings: 1 µM, ATP at Km
T14 construct: purchased Millipore (KinaseProfiler) kinase panel

NEK2 = NEK2 (Homo sapiens, UniProt P51955); assay: Kinase panel (Millipore); assay type: biochemical; settings: 1 µM, ATP at Km
CKIT = molecular target: T15, CKIT (Homo sapiens, UniProt P10721); assay: Kinase panel (Millipore); assay type: biochemical; settings: 1 µM, ATP at Km
T15 construct: purchased Millipore (KinaseProfiler) kinase panel

PASK = molecular target: T16, PASK (Homo sapiens, UniProt Q96RG2); assay: Kinase panel (Millipore); assay type: biochemical; settings: 1 µM, ATP at Km
T16 construct: purchased Millipore (KinaseProfiler) kinase panel

PYK2 = molecular target: T17, PYK2 (Homo sapiens, UniProt Q14289); assay: Kinase panel (Millipore); assay type: biochemical; settings: 1 µM, ATP at Km
T17 construct: purchased Millipore (KinaseProfiler) kinase panel

in vivo = settings: female, dog, 0.2 mg/kg
PI3K GAMMA = PI3K GAMMA (Homo sapiens, UniProt P48736); assay: Kinase panel (Millipore); assay type: biochemical; settings: 1 µM, ATP at Km
sst1 (h) = sst1 (h) (Homo sapiens, UniProt P30872); assay: CEREP binding assay; settings: agonist radioligand, read-out: % Inhibition of Control Specific Binding
CHK1 = CHK1 (Homo sapiens, UniProt O14757); assay: Kinase panel (Millipore); assay type: biochemical; settings: 1 µM, ATP at Km

T5 sequence (Q15139 whole entry): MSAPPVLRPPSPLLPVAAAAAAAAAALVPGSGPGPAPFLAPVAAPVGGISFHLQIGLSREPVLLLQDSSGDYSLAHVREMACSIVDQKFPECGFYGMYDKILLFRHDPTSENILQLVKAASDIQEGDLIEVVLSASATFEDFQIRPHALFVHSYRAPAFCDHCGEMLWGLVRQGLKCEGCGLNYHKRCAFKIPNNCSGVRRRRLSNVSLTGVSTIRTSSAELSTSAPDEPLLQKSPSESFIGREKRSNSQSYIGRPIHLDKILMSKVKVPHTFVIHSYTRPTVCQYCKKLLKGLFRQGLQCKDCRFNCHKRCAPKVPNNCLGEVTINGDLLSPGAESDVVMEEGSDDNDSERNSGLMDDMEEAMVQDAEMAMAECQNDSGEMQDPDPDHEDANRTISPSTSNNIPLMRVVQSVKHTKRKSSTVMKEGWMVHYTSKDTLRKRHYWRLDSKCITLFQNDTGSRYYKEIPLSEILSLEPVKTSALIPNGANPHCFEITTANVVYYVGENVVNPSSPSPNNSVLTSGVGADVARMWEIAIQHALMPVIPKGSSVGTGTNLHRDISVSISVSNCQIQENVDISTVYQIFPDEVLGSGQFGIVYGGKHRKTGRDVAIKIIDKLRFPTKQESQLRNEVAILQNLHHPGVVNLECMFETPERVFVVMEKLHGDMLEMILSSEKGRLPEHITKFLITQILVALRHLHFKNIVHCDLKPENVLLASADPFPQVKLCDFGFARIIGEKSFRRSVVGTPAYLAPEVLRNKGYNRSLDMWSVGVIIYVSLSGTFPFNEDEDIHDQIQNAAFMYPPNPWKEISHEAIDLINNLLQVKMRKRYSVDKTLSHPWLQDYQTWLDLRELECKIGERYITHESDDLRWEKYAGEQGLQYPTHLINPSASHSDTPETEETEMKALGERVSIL
T6 sequence (P35968 20-1356): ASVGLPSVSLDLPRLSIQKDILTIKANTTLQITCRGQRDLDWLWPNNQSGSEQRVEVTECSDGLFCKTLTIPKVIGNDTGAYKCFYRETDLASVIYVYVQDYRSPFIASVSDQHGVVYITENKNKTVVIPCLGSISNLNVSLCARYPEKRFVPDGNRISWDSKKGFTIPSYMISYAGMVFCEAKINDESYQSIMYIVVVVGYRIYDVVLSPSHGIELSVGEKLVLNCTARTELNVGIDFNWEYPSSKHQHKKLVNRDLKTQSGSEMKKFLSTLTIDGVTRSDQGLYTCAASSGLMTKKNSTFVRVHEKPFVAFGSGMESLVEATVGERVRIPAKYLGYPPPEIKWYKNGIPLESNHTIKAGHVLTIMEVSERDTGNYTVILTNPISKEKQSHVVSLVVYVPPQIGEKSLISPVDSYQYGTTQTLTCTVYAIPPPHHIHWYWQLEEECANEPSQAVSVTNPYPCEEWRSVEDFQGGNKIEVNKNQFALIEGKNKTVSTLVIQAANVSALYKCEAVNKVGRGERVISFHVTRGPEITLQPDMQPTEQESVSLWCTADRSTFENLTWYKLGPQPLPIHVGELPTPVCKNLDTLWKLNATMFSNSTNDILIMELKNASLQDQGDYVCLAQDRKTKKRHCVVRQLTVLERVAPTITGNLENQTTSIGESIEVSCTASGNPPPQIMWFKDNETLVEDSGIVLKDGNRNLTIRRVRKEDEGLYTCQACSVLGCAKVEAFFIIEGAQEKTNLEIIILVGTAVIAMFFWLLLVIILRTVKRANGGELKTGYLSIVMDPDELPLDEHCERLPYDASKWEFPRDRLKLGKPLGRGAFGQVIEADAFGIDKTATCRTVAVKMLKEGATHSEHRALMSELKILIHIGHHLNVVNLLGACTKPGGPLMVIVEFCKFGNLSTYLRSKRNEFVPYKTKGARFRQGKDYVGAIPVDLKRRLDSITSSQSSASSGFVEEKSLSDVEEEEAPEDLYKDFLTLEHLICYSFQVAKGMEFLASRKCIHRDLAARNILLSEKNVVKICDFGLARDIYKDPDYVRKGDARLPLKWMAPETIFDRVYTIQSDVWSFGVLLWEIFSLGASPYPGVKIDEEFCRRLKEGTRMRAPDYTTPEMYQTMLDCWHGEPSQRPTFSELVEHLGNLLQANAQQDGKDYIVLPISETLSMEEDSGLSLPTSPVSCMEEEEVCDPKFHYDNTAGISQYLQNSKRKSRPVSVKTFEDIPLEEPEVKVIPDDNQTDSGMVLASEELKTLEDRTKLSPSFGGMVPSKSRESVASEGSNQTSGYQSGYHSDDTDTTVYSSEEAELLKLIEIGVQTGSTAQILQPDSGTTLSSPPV
NEK2, sequence (P51955 whole entry): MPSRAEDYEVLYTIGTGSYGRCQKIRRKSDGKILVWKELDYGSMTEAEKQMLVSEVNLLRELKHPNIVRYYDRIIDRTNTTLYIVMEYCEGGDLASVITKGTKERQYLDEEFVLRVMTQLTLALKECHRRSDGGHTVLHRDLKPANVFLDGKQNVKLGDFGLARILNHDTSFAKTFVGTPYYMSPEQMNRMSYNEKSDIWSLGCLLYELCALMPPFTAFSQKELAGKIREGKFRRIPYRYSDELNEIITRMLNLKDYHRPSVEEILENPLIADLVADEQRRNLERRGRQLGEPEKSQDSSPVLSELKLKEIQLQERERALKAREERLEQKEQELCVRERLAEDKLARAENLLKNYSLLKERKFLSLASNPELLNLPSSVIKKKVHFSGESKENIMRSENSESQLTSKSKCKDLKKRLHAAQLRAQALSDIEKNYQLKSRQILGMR
T11 sequence (Q9UL54 whole entry): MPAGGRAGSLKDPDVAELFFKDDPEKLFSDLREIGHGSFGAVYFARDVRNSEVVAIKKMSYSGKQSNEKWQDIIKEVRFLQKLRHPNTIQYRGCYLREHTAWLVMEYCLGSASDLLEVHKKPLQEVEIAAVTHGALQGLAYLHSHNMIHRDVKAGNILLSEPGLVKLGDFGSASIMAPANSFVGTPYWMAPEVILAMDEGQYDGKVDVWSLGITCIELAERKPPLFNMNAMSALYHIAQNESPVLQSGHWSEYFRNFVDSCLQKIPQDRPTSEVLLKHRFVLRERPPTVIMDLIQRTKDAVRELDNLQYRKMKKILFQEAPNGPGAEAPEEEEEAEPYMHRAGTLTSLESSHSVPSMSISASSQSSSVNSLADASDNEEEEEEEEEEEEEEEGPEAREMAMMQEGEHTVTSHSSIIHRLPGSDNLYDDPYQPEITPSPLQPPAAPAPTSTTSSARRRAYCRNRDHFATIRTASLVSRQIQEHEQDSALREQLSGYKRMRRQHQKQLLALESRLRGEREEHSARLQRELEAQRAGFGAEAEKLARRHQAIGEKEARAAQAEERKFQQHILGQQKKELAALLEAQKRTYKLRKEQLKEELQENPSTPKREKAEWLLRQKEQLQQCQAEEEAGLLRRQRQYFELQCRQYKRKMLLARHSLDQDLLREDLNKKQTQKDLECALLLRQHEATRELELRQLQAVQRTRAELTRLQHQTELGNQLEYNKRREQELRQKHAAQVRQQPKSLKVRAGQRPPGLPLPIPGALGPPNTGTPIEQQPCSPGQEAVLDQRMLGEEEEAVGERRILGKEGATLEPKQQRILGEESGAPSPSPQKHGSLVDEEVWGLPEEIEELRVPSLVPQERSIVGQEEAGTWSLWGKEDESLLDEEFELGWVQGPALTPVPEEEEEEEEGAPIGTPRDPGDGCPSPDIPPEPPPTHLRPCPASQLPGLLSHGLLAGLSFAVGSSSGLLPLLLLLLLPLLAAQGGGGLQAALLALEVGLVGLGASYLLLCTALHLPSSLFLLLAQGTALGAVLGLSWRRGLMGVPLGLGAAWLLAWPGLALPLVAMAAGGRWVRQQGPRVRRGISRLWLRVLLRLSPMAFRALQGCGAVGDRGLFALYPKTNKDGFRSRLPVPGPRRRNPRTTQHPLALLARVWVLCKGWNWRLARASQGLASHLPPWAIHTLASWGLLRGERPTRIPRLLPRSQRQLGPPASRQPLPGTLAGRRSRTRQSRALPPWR
A1 (h), sequence (P30542 whole entry): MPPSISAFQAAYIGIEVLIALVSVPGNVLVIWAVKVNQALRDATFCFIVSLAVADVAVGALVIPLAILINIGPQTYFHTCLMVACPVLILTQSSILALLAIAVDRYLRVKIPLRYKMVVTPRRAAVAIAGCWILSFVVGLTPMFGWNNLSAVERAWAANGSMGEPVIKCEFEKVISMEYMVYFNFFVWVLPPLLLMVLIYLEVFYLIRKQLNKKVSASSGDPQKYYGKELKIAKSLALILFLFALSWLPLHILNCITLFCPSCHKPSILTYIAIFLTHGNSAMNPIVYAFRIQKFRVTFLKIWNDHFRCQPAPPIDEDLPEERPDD
T3 sequence (Q8IW41 whole entry): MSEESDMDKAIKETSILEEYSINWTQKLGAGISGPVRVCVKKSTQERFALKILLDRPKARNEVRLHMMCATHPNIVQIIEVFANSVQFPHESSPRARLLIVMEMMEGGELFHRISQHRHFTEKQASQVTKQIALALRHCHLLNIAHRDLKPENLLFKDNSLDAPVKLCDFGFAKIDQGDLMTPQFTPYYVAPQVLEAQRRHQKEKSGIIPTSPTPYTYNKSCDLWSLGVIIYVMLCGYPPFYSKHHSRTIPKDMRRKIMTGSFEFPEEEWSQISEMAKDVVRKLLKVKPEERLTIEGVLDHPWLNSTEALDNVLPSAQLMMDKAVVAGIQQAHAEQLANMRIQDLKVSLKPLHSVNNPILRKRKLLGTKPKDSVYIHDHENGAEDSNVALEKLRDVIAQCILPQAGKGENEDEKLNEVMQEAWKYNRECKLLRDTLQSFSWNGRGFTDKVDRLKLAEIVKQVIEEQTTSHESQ
T1 sequence (O43318 1-303 limits assumed): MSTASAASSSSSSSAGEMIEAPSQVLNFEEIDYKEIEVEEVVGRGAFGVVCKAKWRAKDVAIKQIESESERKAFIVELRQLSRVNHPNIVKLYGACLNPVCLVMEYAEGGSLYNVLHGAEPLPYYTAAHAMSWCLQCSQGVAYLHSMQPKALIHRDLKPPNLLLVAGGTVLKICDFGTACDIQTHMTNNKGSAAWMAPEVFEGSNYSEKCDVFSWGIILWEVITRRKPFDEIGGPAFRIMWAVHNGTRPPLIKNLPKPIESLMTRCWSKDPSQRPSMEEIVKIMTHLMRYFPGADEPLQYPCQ

Q: For Cn1ncc2cc(-c3cnc(N)c(Cl)c3N3CCC4(CCNC4=O)CC3)ccc21 [Compound 109, 8-(2-Amino-3-chloro-5-(1-methyl-1H-indazol-5-yl)pyridin-4-yl)-2,8-diazaspiro[4.5]decan-1-one], which “% effect” value (ABL (Q252H)) is on record?
A: -10%

Q: And the “% effect” value (TAK1)?
A: -14%

Q: What about the “% effect” value (BRSK1) of the same molecule?
A: 7%

Q: What about the “% effect” value (PRAK) of the same molecule?
A: 13%

Q: And the “% effect” value (MST2)?
A: -11%

Q: And the “% effect” value (PKCMU)?
A: 5%

Q: And the inhibition at 10 µM (A1 (h))?
A: -4%

Q: And the “% effect” value (KDR)?
A: -26%

Q: What about the Vd [1] of the same molecule?
A: 1.4 L/kg

Q: And the clearance [1]?
A: 6 mL/min/kg

Q: And the “% effect” value (EPHA2)?
A: 5%

Q: And the “% effect” value (FGFR1(V561M))?
A: -25%

Q: And the “% effect” value (PI3 KINASE (H1047R/P85A))?
A: 7%

Q: And the “% effect” value (EPHA3)?
A: 5%

Q: And the Papp A→B at 2 h, 1 μM (in vitro)?
A: 31.8 ×10⁻⁶ cm/s

Q: What about the “% effect” value (MLCK) of the same molecule?
A: 3%

Q: What about the “% effect” value (CLK2) of the same molecule?
A: -2%

Q: And the “% Inhibition of Control Specific Binding” value [2]?
A: -16%

Q: What about the “% effect” value (MINK) of the same molecule?
A: 22%

Q: What about the “% effect” value (CKIT(D816V)) of the same molecule?
A: -7%

Q: What about the “% Inhibition of Control Specific Binding” value (NMDA) of the same molecule?
A: 0%

Q: And the “% effect” value (FLT4)?
A: -38%

Q: And the “% effect” value (VRK2)?
A: 3%

Q: And the “% effect” value (TAO2)?
A: 2%

Q: And the “% effect” value (IRAK4)?
A: 6%

Q: What about the “% effect” value (PKG1ALPHA) of the same molecule?
A: 23%

Q: And the “% effect” value (ARG)?
A: 5%

Q: And the “% effect” value (PKCDELTA)?
A: 6%

Q: What about the “% effect” value (RSK4) of the same molecule?
A: -6%

Q: And the “% effect” value (DAPK2)?
A: -7%

Q: What about the inhibition at 10 µM (GR (h)) of the same molecule?
A: -1%

Q: And the inhibition at 10 µM (D3 (h))?
A: 7%

Q: What about the “% effect” value (PRKCQ) of the same molecule?
A: -13%

Q: What about the “% effect” value (NEK2) of the same molecule?
A: 4%

Q: What about the “% effect” value (CKIT) of the same molecule?
A: -5%

Q: What about the “% effect” value (PASK) of the same molecule?
A: -20%

Q: What about the “% effect” value (PYK2) of the same molecule?
A: -2%

Q: What about the Vd (in vivo) of the same molecule?
A: 1.4 L/kg

Q: What about the clearance (in vivo; iv) of the same molecule?
A: 17.8 mL/min/kg

Q: And the “% effect” value (PI3K GAMMA)?
A: 7%

Q: What about the inhibition at 10 µM (sst1 (h)) of the same molecule?
A: -4%

Q: What about the “% effect” value (CHK1) of the same molecule?
A: -8%
